Laboratory results published in publication PMC11623267, “Inhibitors of malaria parasite cyclic nucleotide phosphodiesterases block asexual blood-stage development and mosquito transmission” (Science Advances, 2024).

What was measured:
Format in all cases: cell-based, Plasmodium falciparum
[1] = test system: P. falciparum Dd2; assay: P. falciparum Dd2 LDH growth inhibition assay (asexual blood stage); settings: multidrug-resistant Dd2; geometric mean ×/÷ geometric SD
Description: P. falciparum isolates (3D7/Dd2) were obtained from BEI Resources and were cultured using standard procedures as described elsewhere ([47]). Briefly, P. falciparum was grown in RPMI 1640 medium (10.3 g/liter) supplemented with L-glutamine (2 mM), hypoxanthine (150 μM), Hepes (25 mM), D-glucose (12 mM), sodium bicarbonate (25.7 mM), AlbuMAX II (0.5% or 5 g/liter) (pH 7.4), and 2% RBC (type O+, freshly prepared). Cultures were replenished with fresh medium and RBCs every other day. For RBC preparation, whole blood was centrifuged at 415g at room temperature for 12 min. After that, the plasma and buffy coat were removed, and packed RBCs were washed three times with 3 vol of RPMI 1640. Last, RBCs were resuspended in 1:1 vol of complete RPMI 1640 medium (containing 0.5% AlbuMAX II).
The P. falciparum 3D7 and Dd2 LDH growth inhibition assay was carried out as described elsewhere ([48]) with minor modification of the parasitological conditions (10 to 15% parasitemia with ≥80% rings). Data were normalized to percent growth inhibition with respect to […] (for 3D7, a mixture of 100 nM chloroquine and 100 nM atovaquone as 100% inhibition; for Dd2, a mixture of 200 nM DHA and 200 nM atovaquone as 100% inhibition) controls.

[2] = test system: P. falciparum stage IV/V gametocytes; assay: LDH-based gametocyte viability assay; settings: stage IV to V gametocytes
Description: The pLDH assay was performed on late (>95% stage IV/V) gametocytes. Compound dilutions were placed in triplicate in 96-well plates in a final volume of 100 μl per well. DHA and MMV048 were used as positive drug controls. The gametocyte cultures (100 μl per well) were added to the 96-well plates to achieve a final gametocytemia and hematocrit of 2 and 1%, respectively, in a total incubation volume of 200 μl. Plates were incubated at 37°C for 72 hours, followed by the replacement of spent medium with drug-free culture medium (75% medium change) ([54], [55]). Plates were then incubated for a further 72 hours before assessing viability by measuring pLDH activity. Gametocyte viability was determined spectrophotometrically by measuring the activity of pLDH, according to a modified version of a published protocol ([56]). Briefly, 100 μl of Malstat reagent [0.21% (v/v) Triton X-100, 222 mM L-(+)-lactic acid, 54.5 mM tris, 0.166 mM APAD (Sigma-Aldrich, A5251), adjusted to pH 9 with 1 M NaOH] was transferred into a clean 96-well plate. A fixed volume of 20 μl of parasite suspension per well was added to the Malstat plate, followed by the addition of 25 μl of PES/NBT (0.239 mM phenazine ethosulfate and 1.96 mM nitro blue tetrazolium chloride). Absorbance was measured with a Multiskan Ascent 354 multiplate scanner (Thermo LabSystems, Finland) at 620 nm.

[3] = test system: P. falciparum stage V gametocytes (male gamete formation); assay: Exflagellation (male gamete formation) inhibition assay; settings: 2 μM, 48 hours
Description: The exflagellation inhibition assay was performed by capturing movement of exflagellation centers over time by video microscopy [adapted from a reported protocol ([52])]. For this carry-over format, mature stage V gametocytes were treated with 2 μM of each compound for 48 hours before induction of exflagellation in the presence of compound. To evaluate compound dose response, gametocytes were treated similarly at a set of concentrations representing a fourfold serial dilution. Mature gametocyte cultures (>95% stage V; 500 μl) were centrifuged at 3500 rpm for 30 s, and the pellet was resuspended in 30 μl of ookinete medium [RPMI 1640 medium containing L-glutamine (Sigma-Aldrich, R6504), gentamycin (0.024 mg/ml; HyClone, SV30080.01), 202 μM hypoxanthine (Sigma-Aldrich, H9636), 25 mM Hepes (Sigma-Aldrich, H4034), 0.2% glucose (Sigma-Aldrich, G6152), and 0.5% (w/v) AlbuMAX II (Invitrogen, Paisley, UK), supplemented with 100 μM XA and 20% human serum]. The activated culture (10 μl) was introduced into a Neubauer chamber and placed on the microscope platform to settle homogenously. Time was noted as time zero (T0), and the chamber was incubated at room temperature. Movement was recorded by video microscopy using a Carl Zeiss NT 6V/10W Stab microscope, fitted with a MicroCapture camera at 10× magnification, and then quantified by a semiautomated method, a modification of the method described previously ([53]). A series of 15 videos of 8 to 10 s each were captured at random locations between 15 and 22.5 min after incubation. Each video was analyzed using Icy bioimage analysis software to quantify the number of exflagellating centers. Compound IC50 values were determined with nonlinear curve fitting (GraphPad Prism 6), normalized to maximum and minimum inhibition.

[4] = test system: P. falciparum stage V gametocytes (female gamete formation); assay: Female gamete formation inhibition assay; settings: 2 μM, 48 hours
Description: Mature gametocytes (>95% stage V) were treated with compounds (2 μM) for 48 hours before stimulating female gamete formation. To evaluate compound dose response, gametocytes were treated similarly at set concentrations representing a fourfold serial dilution. Female gamete activation was induced by both a temperature drop and the addition of 100 μM XA. Monoclonal anti-Pfs25 antibody (BEI Resources, catalog number MRA-28; 1:1000 dilution) conjugated to fluorescein isothiocyanate was used to detect female gametes. Image acquisition was performed using a Zeiss Axio Lab.A1 epifluorescence microscope with a 100/1.4 numerical aperture oil immersion objective and a Zeiss Axiocam 202 mono digital camera. Using a 100× objective, 30 images were taken per sample and analyzed manually. The number, size, roundness, and intensity of fluorescence of activated female gametocytes were evaluated. Compound IC50 values were determined with nonlinear curve fitting (GraphPad Prism 6), normalized to maximum and minimum inhibition.

[5] = test system: P. falciparum clinical isolates from Porto Velho, Brazil; assay: Ex vivo schizont maturation assay, Brazilian clinical isolates; settings: eight Brazilian isolates; read-out: Median EC50, clinical isolates
Description: (§1) Only monoinfected patients with P. falciparum with parasitemia between 2000 and 80,000 parasites/μl and with at least 70% of ring-stage parasites were recruited. Patients who had used an antimalarial in the previous month and/or presented with symptoms of severe malaria were excluded from the study. The study cohort comprised 24 patients living in this highly endemic area. A peripheral venous blood sample (5 ml) was collected from each individual by venipuncture in heparin-containing tubes and immediately used in the ex vivo drug susceptibility assay using preprepared plates containing diluted antimalarial compounds. […] Last, 20 μl of each dilution was transferred into the ex vivo assay plate and diluted 10-fold into the final assay medium containing parasites. For the infected blood preparation, 5 ml of whole blood was centrifuged at 800g for 10 min, and the plasma and buffy coat were removed. […] Control assays on a 3D7 laboratory isolate were performed with medium supplemented with human serum (20%). The iRBC (180 μl per well) were distributed in the predosed drug plate. […] Control wells containing drug-free iRBCs were cultured with complete medium. The parasite-drug incubation was terminated when 40% of the ring stages reached the schizont stage (at least three distinct nuclei per parasite) in the drug-free control wells. Thick blood films were then made from each well, dried, stained with 5% Giemsa solution for 30 min, and examined microscopically. The number of schizonts per 200 asexual-stage parasites was determined for each drug concentration and then normalized by comparing with the schizont number in the drug-free control wells [considered as 100% ([64])]. The half-maximal drug inhibitory response (EC50) was estimated by curve fitting using software from the OriginLab Corporation, Northampton, MA, USA and comparing with parasite growth in the drug-free controls.

[6] = test system: P. falciparum 3D7; assay: Ex vivo schizont maturation assay, 3D7 control (Brazil); settings: tested in parallel with Brazilian isolates, 20% human serum
Description: as §1, with “The parasite-drug incubation was terminated when 40% of the ring stages reached the schizont stage (at least three distinct nuclei per parasite) in the drug-free control wells. Thick blood films were then made from each well, dried, stained with 5% Giemsa solution for 30 min, and examined microscopically.” left out, “The half-maximal drug inhibitory response (EC50) was estimated by curve fitting using software from the OriginLab Corporation, Northampton, MA, USA and comparing with parasite growth in the drug-free controls.” left out

CCc1c2nc(-c3cc(C(=O)NC(C)C)cnc3OCC(C)C)[nH]c(=O)c2nn1CCOC [SAL-0010255]
EC50 [1]: 126 nM
% inhibition gametocyte viability at 15 μM [2]: 40.4 ± 3.1%
% inhibition of exflagellation at 2 μM [3]: 48.8 ± 25.3%
% inhibition of female gamete formation at 2 μM [4]: 66.7 ± 1.8%
EC50 [5]: 157 nM
EC50 [6]: 89 nM
